Measured values: patent US20180000778A1, “SMALL MOLECULE ANTAGONISTS OF DUSP5 AND METHODS OF USE” (THE MEDICAL COLLEGE OF WISCONSIN, INC., priority 2015, published 2018)

Experiments:
full-length DUSP5 = biological target: T1, full-length DUSP5 (Homo sapiens, UniProt Q16690); assay: ERK dephosphorylation assay, full-length DUSP5 with pERK2 substrate, western blot; assay type: biochemical
T1 construct: an assay was development using ERK2 and full-length DUSP5
T1 sequence (Q16690 1-384): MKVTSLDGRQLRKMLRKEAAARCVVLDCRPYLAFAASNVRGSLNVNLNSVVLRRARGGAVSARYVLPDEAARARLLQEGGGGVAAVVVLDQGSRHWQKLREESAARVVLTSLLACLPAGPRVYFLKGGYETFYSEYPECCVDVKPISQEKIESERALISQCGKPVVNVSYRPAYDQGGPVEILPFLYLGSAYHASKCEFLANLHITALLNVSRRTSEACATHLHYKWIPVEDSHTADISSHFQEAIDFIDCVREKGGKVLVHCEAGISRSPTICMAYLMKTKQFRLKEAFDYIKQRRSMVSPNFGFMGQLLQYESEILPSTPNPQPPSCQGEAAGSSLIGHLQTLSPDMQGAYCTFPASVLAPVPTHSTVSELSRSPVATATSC
Method: ERK Dephosphorylation Assay.
For this assay, 10 ng of GST-tagged recombinant phosphorylated ERK2 (R&D Systems, 1230-KS) was incubated with and without the indicated DUSP5 proteins (0.5 nM final concentration) for 15 min at room temperature, with or without the indicated drugs. The reactions were halted with 2× Laemmli sample buffer and subjected to SDS-PAGE. The proteins were transferred to polyvinylidene difluoride (PVDF) and immunoblotted using antibodies to pERK (Cell Signaling Tech., #9106) and Total ERK (Cell Signaling Tech., #9102). Bound antibodies were visualized using horseradish peroxidase-linked anti-mouse IgG (Cell Signaling Tech, #7076S) and anti-rabbit IgG (Cell Signaling Tech, #7074S), respectively, and ECL reagents (Pierce, 34708) according to the manufacturer's protocol. IC50s were calculated using GraphPad Prism 6 software.
And, the native substrate for DUSP5 is the pERK2 protein, which is much larger and capable of a more complicated range of inter-molecular interactions that the pNPP substrate (which is intended only to mimic the phospho-tyrosine of pERK). […] To this end, an assay was development using ERK2 and full-length DUSP5, monitoring pERK levels in a western blot, as a function of pERK2 substrate concentration. […] This surprising increase in potency for CSD3-2320 (but not NTS) with full length DUSP5 underscores the importance of performing secondary assays with biologically relevant forms of enzyme and substrate.

DUSP5 PD(C263S) = biological target: T2, DUSP5 PD(C263S) (Homo sapiens, UniProt Q16690, C263S); assay: NMR binding assay, 2D 1H-15N HSQC titration; settings: pH 6.8; 250 μM RR505 or 500 μM CSD3-2320
T2 construct: hexa-histidine (N); made in house; host or cells: E. coli BL21(DE3), M9 minimal media with 15NH4Cl
Method: NMR samples of DUSP5 PD(C263 S) were prepared for 2D 1H-15N HSQC (heteronuclear single quantum coherence) spectral titration studies. The 15N-labeled DUSP5 PD(C263) protein was concentrated using an Amicon Ultra-4 centrifugal device (Millipore) to 600 μM.
NMR samples were prepared with the following conditions for RR505: ±250 μM RR505, 250 μM DUSP5 PD (C263S), 10% D20, 50 mM potassium phosphate, 100 mM KCl, and 2 mM DTT at pH 6.8.
NMR samples were prepared with the following conditions for CSD3-2320: ±500 μM CSD3-2320, 500 μM DUSP5 PD (C263S), 10% D20, 50 mM potassium phosphate, 100 mM KCl, and 2 mM DTT at pH 6.8. NMR experiments were performed on a 500 MHz Varian NMR System using a triple resonance probe with z-axis gradients at 25° C.

T2 sequence (Q16690 178-319 C263S limits assumed): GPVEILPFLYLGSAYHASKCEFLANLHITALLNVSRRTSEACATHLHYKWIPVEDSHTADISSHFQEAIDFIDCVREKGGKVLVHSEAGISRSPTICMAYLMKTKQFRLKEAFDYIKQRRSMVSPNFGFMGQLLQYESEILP

fold increase in IC50 activity compared to NTS (full-length DUSP5; DUSP5/pERK assay)	IC50 (full-length DUSP5; full-length DUSP5, pERK substrate)	IC50 (full-length DUSP5; full-length DUSP5, pERK/ERK2 substrate)	Compound	activity in DUSP5:pERK assay, in words (full-length DUSP5; in vitro, western blot)	binding by HSQC crosspeak changes (DUSP5 PD(C263S))
			O=S(=O)([O-])c1ccc2[nH]c3c(S(=O)(=O)[O-])cc(S(=O)(=O)[O-])cc3c2c1.[Na+].[Na+].[Na+] [RR505, Carbazole-1,3,6-trisulfonic acid, Trisodium Salt]	sub-micromolar range	direct binding
1,000 fold	0.538 ± 0.271 µM	33 µM	O=S(=O)(O)c1cc(O)c2c(S(=O)(=O)O)cccc2c1 [RR527]		direct binding
